Here are results for 64 molecules from the OPERA property sets (Mansouri et al. 2018).

Structures are written as SMILES. Values after ≈ are worked out from the molar mass of the structure shown.

For one data set the following is noted: 25 °C.
Usually solubility stands for the dissolved amount per volume that the medium holds. The low end stands for a poorly soluble substance, the high end for a readily soluble substance. As to `Cc1ccc2cc(C)ccc2c1`, the solubility is 0.0128 mM (≈ 0.002 mg/mL).
Still for that read-out and setting: with `Cc1ccnc(C)c1` the figure was 3020 mM (≈ 324 mg/mL); with `CCCCCCCCCc1ccc(O)cc1`, 0.0318 mM (≈ 0.007 mg/mL); with `CCCCc1c(C)nc(N(C)C)nc1O`, 5.73 mM (≈ 1.2 mg/mL).
Take `Clc1ccc(Cl)c(-c2cc(Cl)c(Cl)cc2Cl)c1`: the solubility was determined as 4.72e-05 mM (≈ 1.54e-05 mg/mL).
The same measure, in the same setting: with `C=C(c1ccccc1)c1ccccc1` the figure was 0.0366 mM (≈ 0.0066 mg/mL).
The same measure, in the same setting: as for `O=C(O)c1ccsc1`, the figure is 33.6 mM (≈ 4.3 mg/mL); as for `COc1ccccc1`, 9.62 mM (≈ 1.04 mg/mL); as for `C1CCCNCC1`, 1710 mM (≈ 170 mg/mL).
`C=CCCCCC` had a solubility of 0.185 mM (≈ 0.0182 mg/mL).
Still for that read-out and setting: with `CC(C)OC(C)(C)C` the figure was 4.3 mM (≈ 0.5 mg/mL); with `Ic1ccc(I)cc1`, 0.00424 mM (≈ 0.0014 mg/mL).
Still for that read-out and setting: with `CCC1NC(=O)c2cc(S(N)(=O)=O)c(Cl)cc2N1` (centres undefined) the figure was 0.518 mM (≈ 0.15 mg/mL); with `CCc1ccc2ccccc2c1`, 0.0513 mM (≈ 0.00801 mg/mL); with `C1OCOCO1`, 1940 mM (≈ 175 mg/mL).
Still for that read-out and setting: with `Cc1ccc(-c2ccccc2)cc1` the figure was 0.0241 mM (≈ 0.00405 mg/mL); with `CC1CCC(C)CC1` (centres undefined), 0.0342 mM (≈ 0.00384 mg/mL).
As to `c1ccc(-c2ccccc2-c2ccccc2)cc1`, the solubility was 0.00538 mM (≈ 0.00124 mg/mL).
On the same count and under the same terms, with `CCCOC(C)C` the figure was 46 mM (≈ 4.7 mg/mL).
On the same count and under the same terms, with `CCOC(=O)C(C)N(C(=O)c1ccccc1)c1ccc(Cl)c(Cl)c1` (centres undefined) the figure was 0.0546 mM (≈ 0.02 mg/mL).
Same read-out and setting: with `Cc1ccccc1N1C(=O)c2cc(S(N)(=O)=O)c(Cl)cc2NC1C` (centres undefined) the figure was 0.165 mM (≈ 0.0603 mg/mL); with `Clc1c(Cl)c(Cl)c(-c2ccccc2)c(Cl)c1Cl`, 1.23e-05 mM (≈ 4.01e-06 mg/mL).
On to `CC(C)[C@@H](N)C(=O)O` (racemic), for which the solubility is 563 mM (≈ 66 mg/mL).
Consider `Fc1cccc(CCl)c1`, for which the solubility was found to be 2.86 mM (≈ 0.414 mg/mL).
The same measure, in the same setting: as for `CCCCCCc1ccccc1`, the figure is 0.00556 mM (≈ 0.000902 mg/mL); as for `C=CCBr`, 31.7 mM (≈ 3.83 mg/mL).
Still for that read-out and setting: with `Cc1ccccc1C(=O)O` the figure was 8.67 mM (≈ 1.18 mg/mL); with `Fc1cccc(Br)c1`, 2.16 mM (≈ 0.378 mg/mL); with `Fc1ccccc1CCl`, 2.88 mM (≈ 0.416 mg/mL).
Still for that read-out and setting: as for `CN(C)[C@@H]1C(O)=C(C(N)=O)C(=O)[C@@]2(O)C(O)=C3C(=O)c4c(O)cccc4[C@@](C)(O)[C@H]3[C@H](O)[C@@H]12`, the figure is 0.68 mM (≈ 0.313 mg/mL).
`Cc1cccc2c(C)cccc12` came in with a solubility of 0.0175 mM (≈ 0.00274 mg/mL).
On the same count and under the same terms, with `Clc1cccc(-c2cccc(Cl)c2Cl)c1Cl` the figure was 5.34e-05 mM (≈ 1.56e-05 mg/mL); with `O=C(O)COc1cccc(Cl)c1Cl`, 1.55 mM (≈ 0.343 mg/mL); with `O=c1cc[nH]c(=S)[nH]1`, 5.53 mM (≈ 0.709 mg/mL).
The same measure, in the same setting: with `Cc1c2ccccc2cc2ccccc12` the figure was 0.00136 mM (≈ 0.000261 mg/mL).
Consider `O=C(O)c1cccc(Br)c1`, for which the solubility was found to be 2 mM (≈ 0.402 mg/mL).
On the same count and under the same terms, with `CCCCCCCCCCCCCCCCCCCCCCCCCCCCCCCCCCCC` the figure was 3.35e-06 mM (≈ 1.7e-06 mg/mL).
Same read-out and setting: as for `C(=C\c1ccccc1)/c1ccccc1`, the figure is 0.00161 mM (≈ 0.000291 mg/mL); as for `CCCCCCCCl`, 0.101 mM (≈ 0.0136 mg/mL).
Still for that read-out and setting: with `COc1ccc2c(c1OC)C(=O)OC2` the figure was 12.9 mM (≈ 2.5 mg/mL).
Consider `CC(C)(C)C(=O)C1C(=O)c2ccccc2C1=O`, for which the solubility was 0.0782 mM (≈ 0.018 mg/mL).
On the same count and under the same terms, as for `CCCC(=O)OC`, the figure is 147 mM (≈ 15 mg/mL); as for `C=CCC1(CC(C)C)C(=O)NC(=O)NC1=O`, 7.6 mM (≈ 1.7 mg/mL).
The same measure, in the same setting: with `CC1(C)C(=O)[C@@]2(C)CC[C@@H]1C2` the figure was 14.1 mM (≈ 2.15 mg/mL); with `Cc1cc(-c2ccc(N)c(C)c2)ccc1N`, 6.12 mM (≈ 1.3 mg/mL).
Still for that read-out and setting: with `Clc1ccc(Cl)c(-c2c(Cl)ccc(Cl)c2Cl)c1Cl` the figure was 1.25e-05 mM (≈ 4.51e-06 mg/mL); with `ClCCCBr`, 14.2 mM (≈ 2.24 mg/mL).
Turning to `O=C(O)c1ccnc(C(=O)O)c1`, the solubility came to 14.9 mM (≈ 2.49 mg/mL).
Still for that read-out and setting: as for `CC(=O)[C@@]1(O)CC[C@H]2[C@@H]3C[C@H](C)C4=CC(=O)C=C[C@]4(C)[C@@]3(F)[C@@H](O)C[C@@]21C`, the figure is 0.0797 mM (≈ 0.03 mg/mL); as for `CCCCC(C)CC` (centres undefined), 0.00693 mM (≈ 0.000792 mg/mL).
On the same count and under the same terms, as for `O=C(O)c1cc(=O)c(O)c(C(=O)O)o1`, the figure is 42 mM (≈ 8.4 mg/mL); as for `Cc1ccc(C)c2c(C)cccc12`, 0.0123 mM (≈ 0.0021 mg/mL); as for `C=CCCCCCC`, 0.0365 mM (≈ 0.0041 mg/mL).
The molecule `c1ccc2c(c1)Cc1c-2ccc2ccccc12` displayed a solubility of 0.00021 mM (≈ 4.54e-05 mg/mL).
Same read-out and setting: with `O=S(=O)(O)CS(=O)(=O)O` the figure was 8900 mM (≈ 1570 mg/mL); with `CCOC(=O)c1c[nH]c(=S)[nH]c1=O`, 7.97 mM (≈ 1.6 mg/mL).
On the same count and under the same terms, as for `C1=CCCCCC1`, the figure is 0.686 mM (≈ 0.066 mg/mL).

Still in this data set, the particulars now being: 27 °C.
`Cc1c(C)c2c3ccccc3ccc2c2ccccc12` displayed a solubility of 9.75e-05 mM (≈ 2.5e-05 mg/mL).

The same data set, now with this note: 30 °C.
The molecule `COc1ccccc1C(=O)O` registered a solubility of 32.9 mM (≈ 5 mg/mL).
On the same count and under the same terms, with `Cc1cccc(Nc2ccccc2C(=O)O)c1C` the figure was 0.0829 mM (≈ 0.02 mg/mL); with `CN=C(O)Oc1cccc(C)c1`, 15.7 mM (≈ 2.6 mg/mL).
Same read-out and setting: with `CC(C)CCC[C@@H](C)[C@H]1CC[C@H]2[C@@H]3CC=C4C[C@@H](O)CC[C@]4(C)[C@H]3CC[C@]12C` the figure was 0.000246 mM (≈ 9.5e-05 mg/mL); with `C=CCCCCCCCCC(=O)O`, 0.4 mM (≈ 0.0737 mg/mL).
On the same count and under the same terms, with `CC(=O)Nc1nnc(S(N)(=O)=O)s1` the figure was 4.41 mM (≈ 0.98 mg/mL).
